Laboratory results published in the supplement of paper PMC10307832.

What was measured:
Assay in all cases: relative viability (nuclei count vs DMSO), 5 days (fraction); higher = more cells survive
[1] = compound: CCN(CCO)CCCC(C)Nc1ccnc2cc(Cl)ccc12 [Hydroxychloroquine] + CC1(C)CCC(c2ccc(Cl)cc2)=C(CN2CCN(c3ccc(C(=O)NS(=O)(=O)c4ccc(N[C@H](CCN5CCOCC5)CSc5ccccc5)c(S(=O)(=O)C(F)(F)F)c4)cc3)CC2)C1 [Navitoclax] (partner 0.5 µM)
Procedure, shortened: (§1)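 Cells from lung cancer lines were seeded into 1536-well plates and, one day later, dosed by pin tool. Treatments were either a single drug or a fixed dose of an anchor drug with five library-drug doses (not always all listed) in √10 steps. After 5 days, nuclei were stained in a one-step fixation (final 0.05% Triton X-100, 1% formaldehyde, 1 ug/ml Hoechst) and counted on 4× images, and relative viability is the treated-to-vehicle nuclei ratio, as the median of duplicate plates.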

[2] = compound: CCN(CCO)CCCC(C)Nc1ccnc2cc(Cl)ccc12 [Hydroxychloroquine] + CCNC(=O)c1noc(-c2cc(C(C)C)c(O)cc2O)c1-c1ccc(CN2CCOCC2)cc1 [Luminespib] (partner 0.01 µM)
Procedure, shortened: as §1

[3] = compound: CCN(CCO)CCCC(C)Nc1ccnc2cc(Cl)ccc12 [Hydroxychloroquine] + COc1cc2c(Oc3ccc(NC(=O)C4(C(=O)Nc5ccc(F)cc5)CC4)cc3F)ccnc2cc1OCCCN1CCOCC1 [Foretinib] (partner 0.25 µM)
Procedure, shortened: as §1

[4] = compound: CCN(CCO)CCCC(C)Nc1ccnc2cc(Cl)ccc12 [Hydroxychloroquine] + C[C@]1(O)C[C@@H](c2nc(-c3ccc4ccc(-c5ccccc5)nc4c3)c3c(N)nccn32)C1 [Linsitinib] (partner 1 µM)
Procedure, shortened: as §1

Cell Line | relative viability ([1]; first compound 0.5 µM) | relative viability ([1]; first compound 1.581 µM) | relative viability ([1]; first compound 5 µM) | relative viability ([1]; first compound 15.81 µM) | relative viability ([1]; first compound 50 µM) | relative viability ([2]; first compound 0.5 µM) | relative viability ([2]; first compound 1.581 µM) | relative viability ([2]; first compound 5 µM) | relative viability ([2]; first compound 15.81 µM) | relative viability ([2]; first compound 50 µM) | relative viability ([3]; first compound 0.5 µM) | relative viability ([3]; first compound 1.581 µM) | relative viability ([3]; first compound 5 µM) | relative viability ([3]; first compound 15.81 µM) | relative viability ([3]; first compound 50 µM) | relative viability ([4]; first compound 0.5 µM) | relative viability ([4]; first compound 1.581 µM) | relative viability ([4]; first compound 5 µM) | relative viability ([4]; first compound 15.81 µM) | relative viability ([4]; first compound 50 µM)
LU99A | 0.858 | 0.707 | 0.93 | 0.679 | 0.749 | 0.279 | 0.248 | 0.265 | 0.226 | 0.268 | 0.914 | 0.724 | 0.786 | 0.789 | 0.861 | 0.525 | 0.478 | 0.437 | 0.527 | 0.503
LXF-289 | 0.956 | 0.986 | 0.983 | 0.948 | 0.999 | 0.745 | 0.824 | 0.713 | 0.576 | 0.721 | 0.96 | 0.959 | 0.969 | 1.03 | 1.08 | 0.986 | 0.985 | 0.992 | 0.995 | 1
NCI-H23 | 0.841 | 0.822 | 0.842 | 0.732 | 0.953 | 0.23 | 0.218 | 0.22 | 0.215 | 0.216 | 1.04 | 0.968 | 0.979 | 0.99 | 0.903 | 0.499 | 0.693 | 0.56 | 0.553 | 0.546
NCI-H322M | 1 | 1.15 | 1.12 | 1.15 | 1.43 | 0.758 | 0.803 | 0.902 | 0.777 | 0.798 | 1 | 0.937 | 0.934 | 1.03 | 0.935 | 0.891 | 1.06 | 0.961 | 0.945 | 0.972
NCI-H441 | – | 0.767 | 0.52 | 0.707 | 0.671 | 0.361 | 0.334 | 0.328 | 0.417 | 0.329 | 0.919 | 1.07 | 1.02 | 1.02 | 0.861 | 0.561 | 0.497 | 0.627 | 0.664 | 0.699
NCI-H460 | 1.24 | 1.35 | 1.19 | 1.36 | 1.41 | 0.0311 | 0.0319 | 0.0298 | 0.0324 | 0.0362 | 1.01 | 0.995 | 1.08 | 1.04 | 1.25 | 0.849 | 0.862 | 0.633 | 0.939 | 0.848
NCI-H520 | 1.12 | 1.16 | 1.13 | 1.03 | 1.2 | 0.236 | 0.226 | 0.217 | 0.184 | 0.209 | 0.833 | 0.781 | 0.801 | 0.839 | 0.748 | 1.25 | 0.908 | 0.908 | 1.16 | 0.923
NCI-H596 | 0.857 | 0.853 | 0.933 | 0.979 | 0.998 | 1.09 | 1.03 | 0.959 | 0.993 | 0.958 | 0.758 | 0.669 | 0.875 | 0.823 | 0.855 | 0.947 | 1.11 | 1.13 | 1.04 | 0.982
